Patent publication US4607046A, “4-(1-imidazolylmethyl)cinnamic acid hydrochloride monohydrate and pharmaceutical compositions” (Kissei Pharmaceutical Co., Ltd., priority 1981, dated 1986)
Counter-ions that a name gives are not always drawn.

How the values were obtained:
[1] = Acute toxicity, oral administration to a rat (LD50); details: in vivo
Procedure: The LD50 value of this compound is in oral administration to a rat is 6000 mg/kg or more.

[2] = Stability under high or low humidity condition; format: physicochemical; details: below about 50° C.

**Q.** Which LD50 [1] does the source give for `O=C(O)C=Cc1ccc(Cn2ccnc2)cc1` [4-(1-imidazolylmethyl)cinnamic acid hydrochloride monohydrate] here?
**A.** Its LD50 is ≥ 6000 mg/kg.

**Q.** And the stability [2]?
**A.** The stability was “stable”.
